Legend:
Format in all cases: in vivo
[1] = tested on: Digitaria insularis (TRCIN); experiment: Post-emergence efficacy, Digitaria insularis; details: 13DAA
Description: (§1) When active ingredients are combined, the activity to be expected (E) for any given active ingredient combination obeys the so-called Colby Formula and can be calculated as follows (Colby, S. R., Calculating synergistic and antagonistic responses of herbicide combination, Weeds, Vol. 15, pages 20-22; 1967): • ppm =milligrams of active ingredient (a.i.) per litre • X=% action by first active ingredient using p ppm of the active ingredient • Y=% action by second active ingredient using q ppm of the active ingredient.
(§2) According to Colby, the expected action of active ingredients A+B using p+q ppm of active ingredient is represented by the following formula: […]
(§3) If the action actually observed (O) is greater than the expected action E then the action of the combination is super-additive, i.e. there is a synergistic effect. In mathematical terms, synergism corresponds to a positive value for the difference of (O-E). In the case of purely complementary addition of activities (expected activity), said difference (O-E) is zero. A negative value of said difference (O-E) signals a loss of activity compared to the expected activity.
(§4) The efficacy of various compositions of the present invention were tested against plants including the following species: Echinochloa crus-gali (ECHCG), Lolium multiflorum(LOLMU), Setaria faberi (SETFA) and Digitaria insularis (TRCIN). The compositions are applied post-emergence, and the tests evaluated at certain days-after-application (DAA) as indicated. The tests were evaluated (100=total damage to plant; 0=no damage to plant), and the results are shown below in Tables B1 to B4.

[2] = tested on: Lolium multiflorum (LOLMU); experiment: Post-emergence efficacy, Lolium multiflorum; details: 15DAA
Description: as §1, §2, §3, §4

[3] = tested on: Echinochloa crus-gali (ECHCG); experiment: Post-emergence efficacy, Echinochloa crus-gali; details: 16DAA
Description: as §1, §2, §3, §4

Setaria faberi (SETFA) = experiment: Post-emergence efficacy, Setaria faberi; details: 15DAA, rate 3 g/ha, 100=total damage to plant, 0=no damage
Description: as §1, §2
If the action actually observed (O) is greater than the expected action E then the action of the combination is super-additive, i.e. there is a synergistic effect. […]
as §4

[4] = rate 1.88 g/ha, 100=total damage, 0=no damage

Molecule `CCc1cc(C)cc(CC)c1-c1c(OC(=O)C(C)(C)C)n2n(c1=O)CCOCC2` [Formula B6, pinoxaden] has an Observed ([1]; rate 0.94 g/ha) of 0 and an Observed [1, 4] of 20.
For `CCCCOC(=O)[C@@H](C)Oc1ccc(Oc2ccc(C(F)(F)F)cn2)cc1` [Formula B4a, fluazifop-P-butyl], the Observed ([2]; rate 8 g/ha) was 68.
With `CC#Cc1ccc(C2=C(OC(=O)OC)C3CCC(C3)C2=O)c(OC)c1` (stereo not shown) [Ic] the Observed ([2]; rate 6.25 g/ha, 100=total damage, 0=no damage) was 44, the Observed ([2]; rate 12.5 g/ha) was 59 and the Observed ([3]; rate 3.125 g/ha, 100=total damage, 0=no damage) was 30. The Observed ([3]; rate 6.25 g/ha) was 88 and the Observed [1, 4] was 48.
Molecule `COC(=O)[C@@H](C)Oc1ccc(Oc2ncc(C(F)(F)F)cc2Cl)cc1` [Formula B5a, haloxyfop-P-methyl] has an Observed ([3]; rate 8 g/ha) of 13.
`CCSC(C)CC1CC(=O)C(/C(CC)=N/OC/C=C/Cl)=C(O)C1` (stereo not shown) [Formula B1, clethodim] gave an Observed (Setaria faberi (SETFA)) of 25.

From patent US20240306642A1, “Herbicidal Compositions” (SYNGENTA CROP PROTECTION AG, priority 2021, published 2024)
